Experimental data from patent publication US20060040957A1, “BICYCLIC PYRIMIDINE MATRIX METALLOPROTEINASE INHIBITORS” (priority 2001, published 2006).
Counter-ions that a name gives are not always drawn. Like-named read-outs stand apart in the source and are kept apart here.

Key:
Type in all cases: biochemical
[1] = target: MMP-13CD (catalytic domain of collagenase 3) (Homo sapiens, UniProt P45452); assay: Thiopeptolide substrate hydrolysis assay, MMP-13CD
Description: (§1) Thiopeptolide substrates show virtually no decomposition or hydrolysis at or below neutral pH in the absence of a matrix metalloproteinase enzyme.

[2] = target: T1, MMP-2FL (full length Gelatinase A) (Homo sapiens, UniProt P08253); assay: Thiopeptolide substrate hydrolysis assay, MMP-2FL; details: HEPES pH 7.0, 22° C., read-out: IC50 (μM) Versus Certain MMPs: MMP-02 FL
T1 sequence (P08253 110-660): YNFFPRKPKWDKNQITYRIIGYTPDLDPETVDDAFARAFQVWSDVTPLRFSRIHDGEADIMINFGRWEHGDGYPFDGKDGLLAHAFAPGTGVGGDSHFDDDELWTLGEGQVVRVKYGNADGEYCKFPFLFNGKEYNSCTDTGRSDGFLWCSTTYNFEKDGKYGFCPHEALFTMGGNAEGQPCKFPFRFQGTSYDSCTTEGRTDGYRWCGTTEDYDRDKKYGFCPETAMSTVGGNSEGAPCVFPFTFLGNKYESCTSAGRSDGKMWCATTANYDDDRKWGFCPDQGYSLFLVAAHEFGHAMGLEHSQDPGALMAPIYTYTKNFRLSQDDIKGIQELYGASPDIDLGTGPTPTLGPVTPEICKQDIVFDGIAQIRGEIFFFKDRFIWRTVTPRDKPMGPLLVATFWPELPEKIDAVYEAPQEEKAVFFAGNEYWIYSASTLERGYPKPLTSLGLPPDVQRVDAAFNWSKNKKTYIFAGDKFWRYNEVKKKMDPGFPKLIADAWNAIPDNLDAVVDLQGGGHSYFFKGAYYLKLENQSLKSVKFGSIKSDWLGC
Description: (§2) The invention compounds of Formula I have been evaluated in standard assays for their ability to inhibit the catalytic activity of various MMP enzymes.
as §1
(§3) Several representative compounds have been evaluated for their ability to inhibit various matrix metalloproteinase enzymes.

[3] = target: T2, MMP-7FL (full length matrilysin) (Homo sapiens, UniProt P09237); assay: Thiopeptolide substrate hydrolysis assay, MMP-7FL; details: HEPES pH 7.0, 22° C., read-out: IC50 (μM) Versus Certain MMPs: MMP-07 FL
T2 sequence (P09237 95-267): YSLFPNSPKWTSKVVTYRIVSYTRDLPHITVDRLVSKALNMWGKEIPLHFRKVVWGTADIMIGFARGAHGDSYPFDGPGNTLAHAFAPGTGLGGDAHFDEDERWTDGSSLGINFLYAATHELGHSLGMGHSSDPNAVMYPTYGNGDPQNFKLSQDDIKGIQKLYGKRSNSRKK
Description: as §2, §1, §3

[4] = target: MMP-9FL (full length Gelatinase B) (Homo sapiens, UniProt P14780); assay: Thiopeptolide substrate hydrolysis assay, MMP-9FL; details: HEPES pH 7.0, 22° C., read-out: IC50 (μM) Versus Certain MMPs: MMP-09 FL
Description: as §2, §1, §3

[5] = target: MMP-14CD (catalytic domain of MMP-14) (Homo sapiens, UniProt P50281); assay: Thiopeptolide substrate hydrolysis assay, MMP-14CD; details: HEPES pH 7.0, 22° C., read-out: IC50 (μM) Versus Certain MMPs: MMP-14 CD
Description: as §2, §1, §3

[6] = thiopeptolide substrate, HEPES pH 7.0, 22° C., read-out: IC50 (μM) Versus Certain MMPs: MMP-13 CD

Chain of MMP-9FL (full length Gelatinase B) (P14780 94-707, species assumed): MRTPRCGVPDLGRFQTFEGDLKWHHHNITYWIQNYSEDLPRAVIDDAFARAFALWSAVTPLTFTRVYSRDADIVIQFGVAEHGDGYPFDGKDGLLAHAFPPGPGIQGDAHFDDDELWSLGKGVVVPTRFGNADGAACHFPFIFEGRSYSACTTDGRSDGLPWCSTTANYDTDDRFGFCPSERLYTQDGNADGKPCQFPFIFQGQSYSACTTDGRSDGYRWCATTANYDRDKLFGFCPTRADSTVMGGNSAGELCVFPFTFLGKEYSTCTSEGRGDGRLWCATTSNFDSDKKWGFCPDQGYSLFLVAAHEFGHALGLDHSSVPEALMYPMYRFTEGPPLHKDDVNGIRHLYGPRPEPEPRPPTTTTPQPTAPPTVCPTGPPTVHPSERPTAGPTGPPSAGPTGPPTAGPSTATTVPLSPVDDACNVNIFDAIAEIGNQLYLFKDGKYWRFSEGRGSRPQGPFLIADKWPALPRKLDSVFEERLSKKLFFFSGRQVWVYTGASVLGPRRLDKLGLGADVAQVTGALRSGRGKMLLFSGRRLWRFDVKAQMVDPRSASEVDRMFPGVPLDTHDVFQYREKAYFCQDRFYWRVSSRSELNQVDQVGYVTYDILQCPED

| SMILES | IC50 [1, 6] | IC50 (μM) Versus Certain MMPs: MMP-13 CD ([1]; thiopeptolide substrate, HEPES pH 7.0, 22° C.) | IC50 ([1]; IC50 inhibition of MMP-13CD, running text after Table 1) | IC50 [2] | IC50 [3] | IC50 [4] | IC50 [5] |
| --- | --- | --- | --- | --- | --- | --- | --- |
| O=c1cc2sc(C(O)c3ccccc3)cn2c(=O)n1Cc1ccccc1 (stereo not shown) [Example 7, 6-Benzyl-2-(hydroxy-phenyl-methyl)-thiazolo[3,2-c]pyrimidine-5,7-dione] | 32 µM |  |  |  |  |  |  |
| Cc1c(=O)n(Cc2ccccc2)c(=O)n2cc(C(O)C#Cc3ccccc3)sc12 (stereo not shown) [Example 31, 6-Benzyl-2-(1-hydroxy-3-phenyl-prop-2-ynyl)-8-methyl-thiazolo[3,2-c]pyrimidine-5,7-dione] | > 30 µM |  |  |  |  |  |  |
| O=C(OCc1ccccc1)C1CSc2cc(=O)n(Cc3ccccc3)c(=O)n21 (stereo not shown) [Example 20, 6-Benzyl-5,7-dioxo-2,3,6,7-tetrahydro-5H-thiazolo[3,2-c]pyrimidine-3-carboxylic acid benzyl ester] |  | none |  |  |  |  |  |
| COc1cc(CNC(=O)c2cn3c(=O)n(Cc4ccc(F)c(F)c4)c(=O)c(C)c3s2)ccn1 [Example 114, 6-(3,4-Fluoro-benzyl)-8-methyl-5,7-dioxo-6,7-dihydro-5H-thiazolo[3,2-c]pyrimidine-2-carboxylic acid(2-methoxy-pyridin-4-ylmethyl)-amide hydrochloride] |  |  | 0.0155 µM |  |  |  |  |
| Cc1c(=O)n(CCC(=O)c2ccccc2)c(=O)n2cc(C(=O)NCc3ccc(F)cc3)sc12 [Example 86, 8-Methyl-5,7-dioxo-6-(3-oxo-3-phenyl-propyl)-6,7-dihydro-5H-thiazolo[3,2-c]pyrimidine-2-carboxylic acid 4-fluoro-benzylamide] | 0.35 µM |  |  |  |  |  |  |
| Cc1c(=O)n(Cc2ccccc2)c(=O)n2cc(C(=O)NCc3ccc(C(F)(F)F)cc3)sc12 [Example 49, 6-Benzyl-8-methyl-5,7-dioxo-6,7-dihydro-5H-thiazolo[3,2-c]pyrimidine-2-carboxylic acid 4-trifluoromethyl-benzylamide] |  |  |  | > 30 µM | > 100 µM | > 100 µM | > 100 µM |
| Cc1c(=O)n(Cc2ccc3cc(F)ccc3n2)c(=O)n2cc(C(=O)NCc3ccc(F)cc3)sc12 [Example 77, 6-(6-Fluoro-quinolin-2-ylmethyl)-8-methyl-5,7-dioxo-6,7-dihydro-5H-thiazolo[3,2-c]pyrimidine-2-carboxylic acid 4-fluoro-benzylamide] |  |  |  | > 30 µM | > 30 µM | > 30 µM | > 30 µM |
| Cc1c(=O)n(Cc2ccc(C(=O)OCCN(C)C)cc2)c(=O)n2cc(C(=O)NCc3ccncc3)sc12 [Example 63, 4-{8-Methyl-5,7-dioxo-2-[(pyridin-4-ylmethyl)-carbamoyl]-7H-thiazolo[3,2-c]pyrimidin-6-ylmethyl}-benzoic acid 2-dimethylamino-ethyl ester dihydrochloride] |  |  |  | > 100 µM | > 100 µM | > 100 µM | > 100 µM |
| Cc1c(=O)n(Cc2ccc3oc(=O)ccc3c2)c(=O)n2cc(C(=O)NCc3ccc(F)cc3)sc12 [Example 80, 8-Methyl-5,7-dioxo-6-(2-oxo-2H-1-benzopyran-6-ylmethyl)-6,7-dihydro-5H-thiazolo[3,2-c]pyrimidine-2-carboxylic acid 4-fluoro-benzylamide] |  |  |  | > 30 µM | > 30 µM | > 30 µM | > 30 µM |
| Cc1c(=O)n(Cc2cccc(C#N)c2)c(=O)n2cc(C(=O)NCc3ccncc3)sc12 [Example 82, 6-(3-Cyano-benzyl)-8-methyl-5,7-dioxo-6,7-dihydro-5H-thiazolo[3,2-c]pyrimidine-2-carboxylic acid(pyridin-4-ylmethyl)-amide hydrochloride] |  |  |  | > 30 µM | > 30 µM | > 30 µM | > 30 µM |

The remaining lines, values ahead:

| IC50 [1, 6] | IC50 (μM) Versus Certain MMPs: MMP-13 CD ([1]; thiopeptolide substrate, HEPES pH 7.0, 22° C.) | IC50 ([1]; IC50 inhibition of MMP-13CD, running text after Table 1) | IC50 [2] | IC50 [3] | IC50 [4] | IC50 [5] | SMILES |
| --- | --- | --- | --- | --- | --- | --- | --- |
| 10 µM |  |  |  |  |  |  | Cc1c(=O)n(CCNC(=O)c2ccccc2)c(=O)n2cc(C(=O)NCc3ccc(F)cc3)sc12 [Example 100, 6-(2-Benzoylamino-ethyl)-8-methyl-5,7-dioxo-6,7-dihydro-5H-thiazolo[3,2-c]pyrimidine-2-carboxylic acid 4-fluoro-benzylamide] |
| 25 µM |  |  |  |  |  |  | Cc1c(=O)n(Cc2ccccc2)c(=O)n2cc(C(O)C=Cc3ccccc3)sc12 (stereo not shown) [Example 29, 6-Benzyl-2-(1-hydroxy-3-phenyl-allyl)-8-methyl-thiazolo[3,2-c]pyrimidine-5,7-dione] |
| 2.1 µM |  |  |  |  |  |  | Cc1c(=O)n(C(C)c2ccccc2)c(=O)n2cc(C(=O)NCc3ccc(F)cc3)sc12 (stereo not shown) [Example 87, 8-Methyl-5,7-dioxo-6-(1-phenyl-ethyl)-6,7-dihydro-5H-thiazolo[3,2-c]pyrimidine-2-carboxylic acid 4-fluoro-benzylamide] |
|  |  |  | > 30 µM | > 30 µM | > 30 µM | > 30 µM | Cc1c(=O)n(Cc2ccc(F)cc2)c(=O)n2cc(C(=O)NCc3ccncc3)sc12 [Example 70, 6-(4-Fluoro-benzyl)-8-methyl-5,7-dioxo-6,7-dihydro-5H-thiazolo[3,2-c]pyrimidine-2-carboxylic acid(pyridin-4-ylmethyl)-amide hydrochloride] |
|  |  |  | > 100 µM | > 100 µM | > 100 µM | > 30 µM | Cc1c(=O)n(Cc2ccc(C(=O)N3CCOCC3)cc2)c(=O)n2cc(C(=O)NCc3ccncc3)sc12 [Example 73, 8-Methyl-6-[4-(morpholine-4-carbonyl)-benzyl]-5,7-dioxo-6,7-dihydro-5H-thiazolo[3,2-c]pyrimidine-2-carboxylic acid(pyridin-4-ylmethyl)-amide hydrochloride] |
|  |  |  | > 100 µM | > 100 µM | > 100 µM | > 100 µM | CC#CCn1c(=O)c(C)c2sc(C(=O)NCc3ccc(F)cc3)cn2c1=O [Example 79, 6-But-2-ynyl-8-methyl-5,7-dioxo-6,7-dihydro-5H-thiazolo[3,2-c]pyrimidine-2-carboxylic acid 4-fluoro-benzylamide] |
|  |  |  | > 100 µM | > 100 µM | > 100 µM | > 100 µM | Cc1c(=O)n(Cc2ccc(-c3nn[nH]n3)cc2)c(=O)n2cc(C(=O)NCc3ccc(F)cc3)sc12 [Example 75, 8-Methyl-5,7-dioxo-6-[4-(2H-tetrazol-5-yl)-benzyl]-6,7-dihydro-5H-thiazolo[3,2-c]pyrimidine-2-carboxylic acid 4-fluoro-benzylamide] |
|  |  |  | > 100 µM | > 100 µM | > 100 µM | > 100 µM | O=C(NCc1ccncc1)c1cn2c(=O)n(Cc3ccccc3)c(=O)cc2s1 [Example 9, 6-Benzyl-5,7-dioxo-6,7-dihydro-5H-thiazolo[3,2-c]pyrimidine-2-carboxylic acid(pyridin-4-ylmethyl)-amide hydrochloride] |
|  |  |  | > 30 µM | > 30 µM | > 30 µM | > 30 µM | COc1cccc(CNC(=O)c2cn3c(=O)n(Cc4ccccc4)c(=O)c(C)c3s2)c1 [Example 109, 6-Benzyl-8-methyl-5,7-dioxo-6,7-dihydro-5H-thiazolo[3,2-c]pyrimidine-2-carboxylic acid 3-methoxy-benzylamide] |
|  |  |  | > 30 µM | > 30 µM | > 30 µM | > 30 µM | Cc1c(=O)n(Cc2ccc(Cl)cc2)c(=O)n2cc(C(=O)NCc3ccncc3)sc12 [Example 72, 6-(4-Chloro-benzyl)-8-methyl-5,7-dioxo-6,7-dihydro-5H-thiazolo[3,2-c]pyrimidine-2-carboxylic acid(pyridin-4-ylmethyl)-amide] |
|  |  |  | > 30 µM | 71 µM | > 30 µM | > 100 µM | Cc1cccc(CNC(=O)c2cn3c(=O)n(Cc4ccccc4)c(=O)c(C)c3s2)c1 [Example 28, 6-Benzyl-8-methyl-5,7-dioxo-6,7-dihydro-5H-thiazolo[3,2-c]pyrimidine-2-carboxylic acid 3-methyl-benzylamide] |
|  |  |  | > 30 µM | 28 µM | > 100 µM | > 100 µM | Cc1ccc(CNC(=O)c2cn3c(=O)n(Cc4ccccc4)c(=O)c(C)c3s2)cc1 [Example 48, 6-Benzyl-8-methyl-5,7-dioxo-6,7-dihydro-5H-thiazolo[3,2-c]pyrimidine-2-carboxylic acid 4-methyl-benzylamide] |
